ChEMBL document CHEMBL1135273, “5-Phosphonomethylquinoxalinediones as competitive NMDA receptor antagonists with a preference for the human 1A/2A, rather than 1A/2B receptor composition” (Bioorg Med Chem Lett, 2002)
pIC50: −log10 of the molar value. The source made the active and inactive calls. No cut-off for these calls is given here.

Experiments:
[1] = molecular target: Glutamate [NMDA] receptor; assay: In vitro inhibitory activity at 1 uM concentration against N-methyl-D-aspartate glutamate receptor, using [3H]CGP-39653 binding assay; format: protein-complex assay
[2] = system: GRIN1/GRIN2A vs GRIN1/GRIN2B (Homo sapiens); assay: Ratio of human NMDA 1A/2A receptor to human NMDA 1A/2B receptor was determined in xenopus oocytes; 1/8; conditions: Oocyte
[3] = molecular target: Glutamate NMDA receptor; GRIN1/GRIN2B (Homo sapiens, UniProt Q05586+Q13224); assay: Inhibitory activity against Xenopus laevis oocyte expressing 1A/2B heteromeric human NMDA (hNMDA) receptor; format: protein-complex assay
Sequence of Glutamate NMDA receptor; GRIN1/GRIN2B (Q13224 whole entry, other chains not shown): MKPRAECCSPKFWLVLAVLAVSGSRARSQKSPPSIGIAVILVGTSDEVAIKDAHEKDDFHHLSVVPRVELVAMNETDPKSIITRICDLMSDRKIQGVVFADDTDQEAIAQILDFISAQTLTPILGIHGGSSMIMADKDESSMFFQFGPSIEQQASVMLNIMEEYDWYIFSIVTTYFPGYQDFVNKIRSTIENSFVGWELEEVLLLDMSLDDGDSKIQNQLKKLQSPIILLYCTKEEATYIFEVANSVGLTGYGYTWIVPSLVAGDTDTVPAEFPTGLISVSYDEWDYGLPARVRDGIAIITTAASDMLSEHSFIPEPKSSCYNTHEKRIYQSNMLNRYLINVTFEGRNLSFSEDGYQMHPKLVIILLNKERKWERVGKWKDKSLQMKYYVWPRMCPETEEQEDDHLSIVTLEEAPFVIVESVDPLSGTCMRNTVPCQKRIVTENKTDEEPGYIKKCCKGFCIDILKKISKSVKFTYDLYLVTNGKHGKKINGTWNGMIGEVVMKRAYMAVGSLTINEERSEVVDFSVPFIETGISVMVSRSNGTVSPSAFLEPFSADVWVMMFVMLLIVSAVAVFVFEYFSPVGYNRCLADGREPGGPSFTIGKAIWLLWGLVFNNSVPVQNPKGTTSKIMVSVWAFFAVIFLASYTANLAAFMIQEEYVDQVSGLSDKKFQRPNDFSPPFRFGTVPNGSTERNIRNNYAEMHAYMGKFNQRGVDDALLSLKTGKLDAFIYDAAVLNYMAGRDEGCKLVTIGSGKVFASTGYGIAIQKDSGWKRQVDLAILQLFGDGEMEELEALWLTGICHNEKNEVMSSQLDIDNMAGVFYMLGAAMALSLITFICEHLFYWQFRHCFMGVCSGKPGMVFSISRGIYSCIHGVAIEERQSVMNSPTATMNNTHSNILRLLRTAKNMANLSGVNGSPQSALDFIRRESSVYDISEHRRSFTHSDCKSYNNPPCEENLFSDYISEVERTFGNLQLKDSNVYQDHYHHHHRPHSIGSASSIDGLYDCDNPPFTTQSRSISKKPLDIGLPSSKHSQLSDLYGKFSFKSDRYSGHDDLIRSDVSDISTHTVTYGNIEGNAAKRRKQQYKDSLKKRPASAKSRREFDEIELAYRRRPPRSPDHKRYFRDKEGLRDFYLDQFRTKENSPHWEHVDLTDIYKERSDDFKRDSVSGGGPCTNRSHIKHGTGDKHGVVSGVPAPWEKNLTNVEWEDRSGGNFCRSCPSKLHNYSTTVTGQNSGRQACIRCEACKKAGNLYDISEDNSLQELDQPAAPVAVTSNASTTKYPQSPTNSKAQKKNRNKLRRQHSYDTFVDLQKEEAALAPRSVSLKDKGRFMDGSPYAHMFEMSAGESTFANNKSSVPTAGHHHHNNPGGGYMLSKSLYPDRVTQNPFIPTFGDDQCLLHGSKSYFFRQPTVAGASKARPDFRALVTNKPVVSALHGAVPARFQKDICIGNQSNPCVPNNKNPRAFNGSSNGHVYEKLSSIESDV

Mus musculus [4] = organism: Mus musculus; assay: Anticonvulsant effect in mouse electroshock-induced seizure test (MES).; format: functional
[5] = molecular target: Glutamate NMDA receptor; GRIN1/GRIN2A (Homo sapiens, UniProt Q05586+Q12879); assay: Inhibitory activity against Xenopus laevis oocyte expressing 1A/2A heteromeric human NMDA (hNMDA) receptor; format: protein-complex assay
Sequence of Glutamate NMDA receptor; GRIN1/GRIN2A (Q12879 whole entry, other chains not shown): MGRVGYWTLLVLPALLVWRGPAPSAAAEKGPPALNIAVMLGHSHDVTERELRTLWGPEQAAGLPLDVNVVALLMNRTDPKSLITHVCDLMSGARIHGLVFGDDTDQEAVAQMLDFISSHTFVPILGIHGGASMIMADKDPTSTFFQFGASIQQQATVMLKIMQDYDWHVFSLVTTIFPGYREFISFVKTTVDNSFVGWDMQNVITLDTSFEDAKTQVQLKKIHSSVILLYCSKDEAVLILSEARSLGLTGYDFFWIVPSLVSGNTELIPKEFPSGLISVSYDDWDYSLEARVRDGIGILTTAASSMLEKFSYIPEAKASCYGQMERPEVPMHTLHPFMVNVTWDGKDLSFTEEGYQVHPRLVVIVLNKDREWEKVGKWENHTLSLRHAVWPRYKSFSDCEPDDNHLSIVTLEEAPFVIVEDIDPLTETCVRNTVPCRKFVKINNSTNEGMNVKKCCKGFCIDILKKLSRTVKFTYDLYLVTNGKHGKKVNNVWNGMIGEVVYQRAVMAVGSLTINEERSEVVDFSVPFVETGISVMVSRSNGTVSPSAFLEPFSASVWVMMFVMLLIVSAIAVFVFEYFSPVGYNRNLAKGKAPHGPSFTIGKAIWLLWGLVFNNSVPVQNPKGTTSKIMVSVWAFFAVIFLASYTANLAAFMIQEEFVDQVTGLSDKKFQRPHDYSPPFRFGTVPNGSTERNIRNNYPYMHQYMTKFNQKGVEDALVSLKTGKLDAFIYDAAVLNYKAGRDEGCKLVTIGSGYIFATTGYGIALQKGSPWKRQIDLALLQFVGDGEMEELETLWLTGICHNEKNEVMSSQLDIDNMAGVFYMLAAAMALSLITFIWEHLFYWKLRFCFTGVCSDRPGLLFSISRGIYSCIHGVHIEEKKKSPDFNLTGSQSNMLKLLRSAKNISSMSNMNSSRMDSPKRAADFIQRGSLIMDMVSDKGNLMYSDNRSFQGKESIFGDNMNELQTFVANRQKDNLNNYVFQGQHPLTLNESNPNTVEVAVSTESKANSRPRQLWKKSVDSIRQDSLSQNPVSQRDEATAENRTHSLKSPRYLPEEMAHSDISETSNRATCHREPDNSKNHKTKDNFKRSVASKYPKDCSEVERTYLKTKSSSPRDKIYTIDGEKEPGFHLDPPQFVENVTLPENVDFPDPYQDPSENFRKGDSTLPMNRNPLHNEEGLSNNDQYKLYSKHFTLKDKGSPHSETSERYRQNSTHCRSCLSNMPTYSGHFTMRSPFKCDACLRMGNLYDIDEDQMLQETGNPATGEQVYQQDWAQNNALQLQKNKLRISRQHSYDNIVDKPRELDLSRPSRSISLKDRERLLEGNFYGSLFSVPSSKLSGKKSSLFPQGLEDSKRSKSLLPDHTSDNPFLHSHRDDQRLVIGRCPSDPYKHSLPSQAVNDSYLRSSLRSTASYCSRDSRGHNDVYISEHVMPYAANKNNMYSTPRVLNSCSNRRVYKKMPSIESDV

[6] = system: GRIN1/GRIN2A vs GRIN1/GRIN2B (Homo sapiens); assay: Ratio of human NMDA 1A/2A receptor to human NMDA 1A/2B receptor was determined in xenopus oocytes; 1/9; conditions: Oocyte
[7] = system: GRIN1/GRIN2A vs GRIN1/GRIN2B (Homo sapiens); assay: Ratio of human NMDA 1A/2A receptor to human NMDA 1A/2B receptor was determined in xenopus oocytes; 1/40; conditions: Oocyte
[8] = system: GRIN1/GRIN2A vs GRIN1/GRIN2B (Homo sapiens); assay: Ratio of human NMDA 1A/2A receptor to human NMDA 1A/2B receptor was determined in xenopus oocytes; 1/1; conditions: Oocyte
[9] = system: Glutamate [NMDA] receptor; assay: The compound was tested in vitro for its inhibitory activity at 1 uM concentration against N-methyl-D-aspartate glutamate receptor by using [3H]CGP-39653 binding assay; Inactive; format: protein-complex assay
[10] = system: GRIN1/GRIN2A vs GRIN1/GRIN2B (Homo sapiens); assay: Ratio of human NMDA 1A/2A receptor to human NMDA 1A/2B receptor was determined in xenopus oocytes; 1/50; conditions: Oocyte
[11] = molecular target: Glutamate [NMDA] receptor; assay: Compound was tested in vitro for its inhibitory activity at 1 uM concentration against N-methyl-D-aspartate glutamate receptor by using [3H]CGP-39653 binding assay; format: protein-complex assay
Mus musculus [12] = assay: Compound was evaluated for its anticonvulsant effect in mouse electroshock-induced seizure test (MES), 8 hr after oral administration; format: functional
Mus musculus [13] = assay: Compound was evaluated for its anticonvulsant effect in mouse electroshock-induced seizure test (MES), 8 hr after intraperitoneal administration; format: functional; conditions: ip
[14] = Compound was tested in vitro for its inhibitory activity against Xenopus laevis oocyte expressing 1A/2A heteromeric human NMDA (hNMDA) receptor
[15] = Compound was tested in vitro for its inhibitory activity against Xenopus laevis oocyte expressing 1A/2B heteromeric human NMDA (hNMDA) receptor
[16] = system: GRIN1/GRIN2A vs GRIN1/GRIN2B (Homo sapiens); assay: Ratio of human NMDA 1A/2A receptor to human NMDA 1A/2B receptor was determined in xenopus oocytes; 1/15; conditions: Oocyte
Mus musculus [17] = assay: Compound at a dose 50 mg/kg was administered intraperitoneally into mouse and percent protection was determined after 1 hour; format: functional; conditions: route intraperitoneal
[18] = molecular target: Glutamate [NMDA] receptor (Homo sapiens) (UniProt Q05586+Q12879+Q13224+O15399+O60391+Q14957+Q8TCU5); assay: The compound was tested in vitro for percent inhibition at 1 uM concentration against N-methyl-D-aspartate glutamate receptor by using [3H]CGP-39653 binding assay; format: protein-complex assay
[19] = system: GRIN1/GRIN2A vs GRIN1/GRIN2B (Homo sapiens); assay: Ratio of human NMDA 1A/2A receptor to human NMDA 1A/2B receptor was determined in xenopus oocytes; 1/14; conditions: Oocyte
[20] = system: GRIN1/GRIN2A vs GRIN1/GRIN2B (Homo sapiens); assay: Ratio of human NMDA 1A/2A receptor to human NMDA 1A/2B receptor was determined in xenopus oocytes; 1/26; conditions: Oocyte
[21] = system: GRIN1/GRIN2A vs GRIN1/GRIN2B (Homo sapiens); assay: Ratio of human NMDA 1A/2A receptor to human NMDA 1A/2B receptor was determined in xenopus oocytes; 1/13; conditions: Oocyte
[22] = system: GRIN1/GRIN2A vs GRIN1/GRIN2B (Homo sapiens); assay: Ratio of human NMDA 1A/2A receptor to human NMDA 1A/2B receptor was determined in xenopus oocytes; 1/11; conditions: Oocyte
[23] = system: GRIN1/GRIN2A vs GRIN1/GRIN2B (Homo sapiens); assay: Ratio of human NMDA 1A/2A receptor to human NMDA 1A/2B receptor was determined in xenopus oocytes; >1/17; conditions: Oocyte
[24] = system: GRIN1/GRIN2A vs GRIN1/GRIN2B (Homo sapiens); assay: Ratio of human NMDA 1A/2A receptor to human NMDA 1A/2B receptor was determined in xenopus oocytes; 1/7; conditions: Oocyte
[25] = system: GRIN1/GRIN2A vs GRIN1/GRIN2B (Homo sapiens); assay: Ratio of human NMDA 1A/2A receptor to human NMDA 1A/2B receptor was determined in xenopus oocytes; 1/10; conditions: Oocyte
[26] = system: GRIN1/GRIN2A vs GRIN1/GRIN2B (Homo sapiens); assay: Ratio of human NMDA 1A/2A receptor to human NMDA 1A/2B receptor was determined in xenopus oocytes; 1/111; conditions: Oocyte

SMILES: Br.O=P(O)(O)C(NCc1ccccc1)c1cccc2nc(O)c(O)nc12 (configuration not stated)
- pIC50 [1]: 8.70
- Ratio [2]: Active
- pIC50 [3]: 7.47
- ED50 (Mus musculus [4]): 2 mg/kg
- pIC50 [5]: 8.38

SMILES: CC(=O)N(C)C(c1cccc2nc(O)c(O)nc12)P(=O)(O)O (configuration not stated)
- Ratio [6]: Active
- pIC50 [1]: 6.07
- pIC50 [3]: 4.62
- pIC50 [5]: 5.55

SMILES: O=P(O)(O)C(NCCc1ccccc1)c1cccc2nc(O)c(O)nc12 (configuration not stated)
- pIC50 [1]: 8.13
- pIC50 [3]: 5.80
- ED50 (Mus musculus [4]): 10 mg/kg
- Ratio [7]: Active
- pIC50 [5]: 7.40

SMILES: CNC(c1cccc2nc(O)c(O)nc12)P(=O)(O)O (configuration not stated)
- pIC50 [1]: 5.96
- Ratio [2]: Active
- pIC50 [3]: 5.21
- pIC50 [5]: 6.10

SMILES: Br.O=[N+]([O-])c1cc(C(NCc2ccco2)P(=O)(O)O)c2nc(O)c(O)nc2c1 (configuration not stated)
- pIC50 [1]: 8.39
- ED50 (Mus musculus [4]): 3.7 mg/kg

SMILES: O=P(O)(O)C(O)c1cccc2nc(O)c(O)nc12 (configuration not stated)
- pIC50 [1]: 8.82
- Ratio [8]: Active
- pIC50 [3]: 9.15
- ED50 (Mus musculus [4]): 0.5 mg/kg
- pIC50 [5]: 8.96

SMILES: O=P(O)(O)Cc1ccc2nc(O)c(O)nc2c1
- IC50 [9]: Not Active

SMILES: C[C@H](NC(c1cccc2nc(O)c(O)nc12)P(=O)(O)O)c1ccccc1 (some centres not stated)
- pIC50 [1]: 8.01
- pIC50 [3]: 6.05
- Ratio [10]: Active
- ED50 (Mus musculus [4]): 6.7 mg/kg
- pIC50 [5]: 7.74

SMILES: Cl.NC(c1cc([N+](=O)[O-])cc2nc(O)c(O)nc12)P(=O)(O)O (configuration not stated)
- pIC50 [1]: 7.40
- ED50 (Mus musculus [4]): 11.6 mg/kg

SMILES: CC(=O)OC(c1cc([N+](=O)[O-])cc2nc(O)c(O)nc12)P(=O)(O)O (configuration not stated)
- pIC50 [1]: 8.09
- ED50 (Mus musculus [4]): 5 mg/kg

SMILES: Br.O=[N+]([O-])c1cc(C(NCc2ccccc2)P(=O)(O)O)c2nc(O)c(O)nc2c1 (configuration not stated)
- pIC50 [1]: 8.82
- ED50 (Mus musculus [4]): 1.5 mg/kg

SMILES: O=P(O)(O)Cc1cccc2nc(O)c(O)nc12
- pIC50 [11]: 9.30
- ED50 (Mus musculus [12]): 6.7 mg/kg
- ED50 (Mus musculus [13]): 1.1 mg/kg
- pIC50 [14]: 8.70
- pIC50 [15]: 7.52
- Ratio [16]: Active
- ED50 (Mus musculus [4]): 0.7 mg/kg

SMILES: CP(=O)(O)C(O)c1cc([N+](=O)[O-])cc2nc(O)c(O)nc12 (configuration not stated)
- Protection (Mus musculus [17]): 0%
- inhibition [18]: 42%

SMILES: CN(Cc1ccccc1)C(c1cccc2nc(O)c(O)nc12)P(=O)(O)O (configuration not stated)
- Protection (Mus musculus [17]): 40%
- pIC50 [1]: 6.80
- pIC50 [3]: 4.52
- Ratio [10]: Active
- pIC50 [5]: 6.22

SMILES: COC(c1cc([N+](=O)[O-])cc2nc(O)c(O)nc12)P(=O)(O)O (configuration not stated)
- pIC50 [1]: 7.77

SMILES: C[C@H](NC(c1cccc2[nH]c(=O)c(=O)[nH]c12)P(=O)(O)O)c1ccc(Br)cc1 (some centres not stated)
- pIC50 [1]: 8.10
- pIC50 [3]: 4.53
- pIC50 [5]: 6.57

SMILES: O=P(O)(O)Cc1cc(-c2ccc(Cl)cc2)cc2nc(O)c(O)nc12
- Ratio [6]: Active
- pIC50 [1]: 9.10
- pIC50 [3]: 8.74
- ED50 (Mus musculus [4]): 0.7 mg/kg
- pIC50 [5]: 9.70

SMILES: O=P(O)(O)C(N[C@H]1CCc2ccccc21)c1cccc2nc(O)c(O)nc12 (some centres not stated)
- Ratio [19]: Active
- pIC50 [1]: 6.92
- pIC50 [3]: 6.09
- ED50 (Mus musculus [4]): 2 mg/kg
- pIC50 [5]: 7.22

SMILES: O=P(O)(O)C(NC(c1ccccc1)c1ccccc1)c1cccc2nc(O)c(O)nc12 (configuration not stated)
- Ratio [6]: Active
- pIC50 [1]: 7.42
- pIC50 [3]: 5.82
- ED50 (Mus musculus [4]): 2.3 mg/kg
- pIC50 [5]: 6.77

SMILES: O=[N+]([O-])c1cc(C(O)P(=O)(O)O)c2nc(O)c(O)nc2c1 (configuration not stated)
- pIC50 [1]: 8.92
- ED50 (Mus musculus [4]): 1.2 mg/kg

SMILES: Br.O=[N+]([O-])c1cc(C(NCc2ccccc2)P(=O)(O)Cc2ccccc2)c2nc(O)c(O)nc2c1 (configuration not stated)
- Protection (Mus musculus [17]): 20%
- pIC50 [1]: 7.22
- Ratio [20]: Active
- pIC50 [3]: 5.89
- pIC50 [5]: 7.30

SMILES: COC(=O)NC(c1cc([N+](=O)[O-])cc2nc(O)c(O)nc12)P(=O)(O)O (configuration not stated)
- pIC50 [1]: 6.43
- Ratio [21]: Active
- pIC50 [3]: 5.85
- ED50 (Mus musculus [4]): 8.8 mg/kg
- pIC50 [5]: 6.96

SMILES: O=P(O)(O)Cc1cc(F)cc2nc(O)c(O)nc12
- pIC50 [1]: 9.00

SMILES: Cl.O=[N+]([O-])c1cc(C(NCC2CCCCC2)P(=O)(O)O)c2nc(O)c(O)nc2c1 (configuration not stated)
- pIC50 [1]: 8.52
- ED50 (Mus musculus [4]): 4 mg/kg

SMILES: C[C@@H](NC(c1cccc2nc(O)c(O)nc12)P(=O)(O)O)c1ccccc1 (some centres not stated)
- Protection (Mus musculus [17]): 60%
- pIC50 [1]: 7.51
- pIC50 [3]: 6.24
- Ratio [22]: Active
- pIC50 [5]: 7.30

SMILES: C[C@H](NC(c1cccc2nc(O)c(O)nc12)P(=O)(O)O)c1cccc2ccccc12 (some centres not stated)
- pIC50 [1]: 7.57
- Ratio [23]: Active
- pIC50 [3]: < 4.52
- ED50 (Mus musculus [4]): 15 mg/kg
- pIC50 [5]: 5.77

SMILES: O=P(O)(O)C(Nc1ccccc1)c1cccc2nc(O)c(O)nc12 (configuration not stated)
- Protection (Mus musculus [17]): 0%
- pIC50 [1]: 6.89
- Ratio [2]: Active
- pIC50 [3]: 5.21
- pIC50 [5]: 6.31

SMILES: O=C(O)Cc1cccc2nc(O)c(O)nc12
- pIC50 [1]: 6.60

SMILES: O=P(O)(O)Cc1cc(Br)cc2nc(O)c(O)nc12
- pIC50 [1]: 8.82
- ED50 (Mus musculus [4]): 2.5 mg/kg

SMILES: O=P(O)(O)Cc1cc(Cl)cc2nc(O)c(O)nc12
- pIC50 [1]: 8.77
- ED50 (Mus musculus [4]): 2.4 mg/kg

SMILES: Br.CP(=O)(O)C(NCc1ccccc1)c1cc([N+](=O)[O-])cc2nc(O)c(O)nc12 (configuration not stated)
- Protection (Mus musculus [17]): 0%
- pIC50 [1]: 7.10
- pIC50 [3]: 5.89
- Ratio [24]: Active
- pIC50 [5]: 6.70

SMILES: CCCNC(c1cc([N+](=O)[O-])cc2nc(O)c(O)nc12)P(=O)(O)O.Cl (configuration not stated)
- pIC50 [1]: 7.19
- pIC50 [3]: 6.03
- ED50 (Mus musculus [4]): 2.8 mg/kg
- Ratio [25]: Active
- pIC50 [5]: 7.05

SMILES: C[C@H](NC(c1cccc2nc(O)c(O)nc12)P(=O)(O)O)c1ccc(Br)cc1 (some centres not stated)
- Ratio [26]: Active
- ED50 (Mus musculus [4]): 23 mg/kg
